Data: patent publication US12091652B2, “Ammonia-oxidizing Nitrosomonas eutropha strain D23” (priority 2014, dated 2024)
Where two headings read alike, the source gives them in different places.

System: Nitrosomonas eutropha D23
Assay: Antibiotic susceptibility (MIC) of N. eutropha D23 cultures in vitro
Format: cell-based
Details: for MIC: 30° C., 48-72 hr, OD600, two-fold dilution series; for MIC Interpretive Criteria (phenotype of N. eutropha D23): CLSI criteria, MIC levels of the outcome stand in parentheses in the cell
Procedure: The activities of five antibiotics, each representing a different antibiotic class, were tested against Nitrosomonas eutropha D23. The antibiotics tested included clindamycin, erythromycin, gentamicin, piperacillin with or without the β-lactamase inhibitor Tazobactam, and tetracycline. These were chosen based on the Clinical and Laboratory Standards Institute (CLSI) recommendations for routine testing and reporting of phylogenetically-related proteobacteria (Pseudomonas aeruginosa) listed under Non-fastidious organisms and Non-Enterobacteriaceae in the CLSI 24th Informational Supplement (M100-S24), and also included topical or systemic antimicrobial agents commonly used against acne, such as clindamycin or tetracycline. Studies with clindamycin were included even though this antibiotic was not expected to be very effective at inhibiting Nitrosomonas, as is the case for other aerobic Gram-negative bacteria.
Minimal Inhibitory Concentrations (MICs) were determined by culturing N. eutropha D23 in decreasing concentrations of each of the five antibiotics. Bacterial growth at 30° C. was monitored for 48-72 hr by determining optical density (OD600) values in samples collected at 24 hr intervals. MIC values were identified as the lowest antibiotic concentration from a two-fold dilution series leading to no increase in OD600 measurements for the 2 or 3-day incubation period. The N. eutropha D23 phenotype in each antibiotic test was determined as Susceptible, Intermediate, or Resistant according to the MIC Interpretive Criteria provided by the CLSI. […] Clindamycin resistance observed for N. eutropha D23 is in agreement with previous reports for natural resistance of aerobic Gram-negative bacteria to this antibiotic. In addition to testing the β-lactam antibiotic piperacillin alone, the broad range β-lactamase inhibitor Tazobactam was also tested in combination with piperacillin to assess the possible expression of β-lactamase(s) by N. eutropha D23.

[1] = Nitrosomonas eutropha, D23, read-out: MIC

Compound | MIC [1] [µg/mL] | MIC Interpretive Criteria (phenotype of N. eutropha D23) | other results
CCC[C@@H]1C[C@@H](C(=O)N[C@@H]([C@H]2O[C@H](SC)[C@H](O)[C@@H](O)[C@H]2O)[C@H](C)Cl)N(C)C1 [Clindamycin] | > 16 |  | 
CC[C@H]1OC(=O)[C@H](C)[C@@H](O[C@H]2C[C@@](C)(OC)[C@@H](O)[C@H](C)O2)[C@H](C)[C@@H](O[C@@H]2O[C@H](C)C[C@H](N(C)C)[C@H]2O)[C@](C)(O)C[C@@H](C)C(=O)[C@H](C)[C@@H](O)[C@]1(C)O [Erythromycin] | 0.16 | Susceptible (≤0.5 μg/ml) | MIC Interpretive Criteria (phenotype of N. eutropha D23) (listed as erythromycin): susceptibility
CCN1CCN(C(=O)N[C@@H](C(=O)N[C@@H]2C(=O)N3[C@@H]2SC(C)(C)[C@@H]3C(=O)O)c2ccccc2)C(=O)C1=O [Piperacillin] | 64 | Intermediate (32-64 μg/ml) | MIC Interpretive Criteria (phenotype of N. eutropha D23) (listed as piperacillin): intermediate resistance
C[C@]1(Cn2ccnn2)[C@H](C(=O)O)N2C(=O)C[C@H]2S1(=O)=O [Tazobactam] |  |  | effect of adding the β-lactamase inhibitor to piperacillin on N. eutropha D23 susceptibility (in combination with piperacillin): no increase in N. eutropha D23 susceptibility
CN(C)[C@@H]1C(O)=C(C(N)=O)C(=O)[C@@]2(O)C(O)=C3C(=O)c4c(O)cccc4[C@@](C)(O)[C@H]3C[C@@H]12 [Tetracycline] | 8 |  | 
Gentamicin |  | Susceptible (≤4 μg/ml) | MIC: 0.25 µg/mL; MIC Interpretive Criteria (phenotype of N. eutropha D23) (listed as gentamicin): susceptibility
Piperacillin/Tazobactam |  | Intermediate | MIC: 64/4
